Experimental data from ChEMBL document CHEMBL1201862, “PubChem BioAssay data set” (2004).
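Results reflect a 48-hour exposure of cells in 96-well plates to compound at five concentrations. At the GI50, growth is halved.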 The source made the active and inactive calls. No stated cut-off is given here; in the data, active = GI50 up to about 1.1 µM and inactive = higher. Where a SMILES comes first, the peptide text is derived from it. [ ]: non-standard residue; d: D form. Phe(4-NO2) = N[CH](Cc1ccc([N+](=O)[O-])cc1)C(=O)O

Assays:
Experiment in all cases: NCI anticancer screen, dose series, 48 h
[1] = system: HCC 2998
[2] = system: BT-549
[3] = system: OVCAR-4
[4] = system: SF-295
[5] = system: A549
[6] = system: UO-31
[7] = system: MOLT-4
[8] = system: CCRF-CEM
[9] = system: CAKI-1
[10] = system: SNB-75
[11] = system: IGROV-1
[12] = system: KM12
[13] = system: OVCAR-3
[14] = system: NCI-H23
[15] = system: SN12C
[16] = system: NCI-H522
[17] = system: A498
[18] = system: SF-539
[19] = system: 786-0
[20] = system: SF-268

Row | SMILES | GI50 [1] | GI50 [2] | GI50 [3] | GI50 [4] | GI50 [5] | GI50 [6] | GI50 [7] | GI50 [8] | GI50 [9] | GI50 [10] | GI50 [11] | GI50 [12] | GI50 [13] | GI50 [14] | GI50 [15] | GI50 [16] | GI50 [17] | GI50 [18] | GI50 [19] | GI50 [20]
1 | COc1cccc2c(=O)c3c(n(C)c12)OC(C(C)C)C3 (stereo not given) | > 100 µM (inactive) | > 100 µM (inactive) | 22.5 µM (inactive) | > 100 µM (inactive) | > 100 µM (inactive) | 40.7 µM (inactive) | 16.9 µM (inactive) | > 100 µM (inactive) | 42.8 µM (inactive) | > 100 µM (inactive) | 42.6 µM (inactive) | 99.5 µM (inactive) | > 100 µM (inactive) | > 100 µM (inactive) | > 100 µM (inactive) | > 100 µM (inactive) | > 100 µM (inactive) | > 100 µM (inactive) | > 100 µM (inactive) | > 100 µM (inactive)
2 | O=C1NC(=S)NC(=O)C1=C(O)Nc1ccccc1 | 42.8 µM (inactive) | 12.1 µM (inactive) | 34.6 µM (inactive) | 27.7 µM (inactive) | 24.1 µM (inactive) | 26.5 µM (inactive) | 10.3 µM (inactive) | 16.4 µM (inactive) | 20.8 µM (inactive) | 27.7 µM (inactive) | 32 µM (inactive) | 36.6 µM (inactive) | 25.5 µM (inactive) | 26.3 µM (inactive) | 25.8 µM (inactive) | 21.7 µM (inactive) | 28.6 µM (inactive) | 23.8 µM (inactive) | 28.1 µM (inactive) | 32.7 µM (inactive)
3 | CCOC(=O)C(C(=O)OCC)=C1NC2(c3ccccc3Nc3ccccc32)C(C#N)S1 (stereo not given) | 4.42 µM (inactive) | 14.2 µM (inactive) | 4.3 µM (inactive) | 11.1 µM (inactive) | 4.39 µM (inactive) | 12.7 µM (inactive) | 3.53 µM (inactive) | 6.08 µM (inactive) | 16.3 µM (inactive) | 16.2 µM (inactive) | 11.1 µM (inactive) | 4.37 µM (inactive) | 0.286 µM (active) | 4.63 µM (inactive) | 5.6 µM (inactive) | 13.9 µM (inactive) | 13.8 µM (inactive) | 11 µM (inactive) | 10.4 µM (inactive) | 13.5 µM (inactive)
4 | COC(=O)CCCc1nc2ccccc2nc1/N=N/c1ccccc1 | > 100 µM (inactive) | 53.7 µM (inactive) | 50.8 µM (inactive) | 41 µM (inactive) | 29.9 µM (inactive) | 25.9 µM (inactive) | 9.93 µM (inactive) | 30.1 µM (inactive) | 41.6 µM (inactive) | 38.5 µM (inactive) | 25.5 µM (inactive) | 37.1 µM (inactive) | 31.3 µM (inactive) | 39 µM (inactive) | 51.5 µM (inactive) | 19.1 µM (inactive) | > 100 µM (inactive) | 70.8 µM (inactive) | 38.1 µM (inactive) | 51.2 µM (inactive)
5 | Nc1ccccc1-c1noc(=O)[nH]1 | > 100 µM (inactive) | > 100 µM (inactive) | > 100 µM (inactive) | > 100 µM (inactive) | > 100 µM (inactive) | > 100 µM (inactive) | > 100 µM (inactive) | > 100 µM (inactive) | > 100 µM (inactive) | > 100 µM (inactive) | 60.4 µM (inactive) | > 100 µM (inactive) | > 100 µM (inactive) | > 100 µM (inactive) | > 100 µM (inactive) | > 100 µM (inactive) | > 100 µM (inactive) | > 100 µM (inactive) | > 100 µM (inactive) | > 100 µM (inactive)
6 | COc1ccc(/C=C/C(=O)c2ccccc2)cc1OC | 17.9 µM (inactive) | 18.2 µM (inactive) | 16.7 µM (inactive) | 16.4 µM (inactive) | 20.9 µM (inactive) | 13.3 µM (inactive) | 13.5 µM (inactive) | 2.53 µM (inactive) | 15.7 µM (inactive) | 14 µM (inactive) | 17.2 µM (inactive) | 3.13 µM (inactive) | 11.4 µM (inactive) | 20.7 µM (inactive) | 14.6 µM (inactive) | 6.85 µM (inactive) | 16.4 µM (inactive) | 11.1 µM (inactive) | 4.97 µM (inactive) | 14.5 µM (inactive)
7 | C=C1CC(COc2cc(=O)oc3ccccc23)(c2ccccc2)OC1=O (stereo not given) | 1.05 µM (active) | 1.53 µM (inactive) | 2.12 µM (inactive) | 5.15 µM (inactive) | 11.2 µM (inactive) | 6.64 µM (inactive) | 7.94 µM (inactive) | 0.625 µM (active) | 1.3 µM (inactive) | 4.25 µM (inactive) | 1.51 µM (inactive) | 3.34 µM (inactive) | 1.37 µM (inactive) | 1.77 µM (inactive) | 1.91 µM (inactive) | 1.56 µM (inactive) | 2.38 µM (inactive) | 2.74 µM (inactive) | 1.51 µM (inactive) | 7.33 µM (inactive)
8 | C=CC(COC(=O)C(C)(C)OC(C)=O)c1ccc(OC(=O)C(C)C)c(OC)c1 (stereo not given) | 3.66 µM (inactive) | 8.87 µM (inactive) | 7.89 µM (inactive) | 4.23 µM (inactive) | 19.8 µM (inactive) | 7.69 µM (inactive) | 3.62 µM (inactive) | 2.78 µM (inactive) | 1.96 µM (inactive) | 7.16 µM (inactive) | 14.1 µM (inactive) | 4.07 µM (inactive) | 4.76 µM (inactive) | 18.8 µM (inactive) | 3.34 µM (inactive) | 2.23 µM (inactive) | 17.2 µM (inactive) | 11.8 µM (inactive) | 7.38 µM (inactive) | 5.2 µM (inactive)
9 | CC12CCCCC1=C(F)C(F)(F)S2 (stereo not given) | > 67.1 µM (inactive) | 19.1 µM (inactive) | 48.3 µM (inactive) | 41.9 µM (inactive) | > 79.3 µM (inactive) | 15 µM (inactive) | 11.3 µM (inactive) | 8.65 µM (inactive) | 21.5 µM (inactive) | > 70.6 µM (inactive) | > 71.9 µM (inactive) | > 84.7 µM (inactive) | 19.7 µM (inactive) | 52.1 µM (inactive) | > 57.7 µM (inactive) | 21.5 µM (inactive) | > 100 µM (inactive) | > 70.6 µM (inactive) | 20.8 µM (inactive) | > 66.4 µM (inactive)
10 | CCSC1SC(c2ccccc2)(c2ccccc2)c2ccccc21 (stereo not given) | 45.1 µM (inactive) | 39.8 µM (inactive) | 55.1 µM (inactive) | 70 µM (inactive) | 46 µM (inactive) | 47.5 µM (inactive) | 25.4 µM (inactive) | 54 µM (inactive) | 48.6 µM (inactive) | 87.9 µM (inactive) | 75.3 µM (inactive) | 38.5 µM (inactive) | 23.8 µM (inactive) | 47.9 µM (inactive) | 38.3 µM (inactive) | 43.5 µM (inactive) | 22.5 µM (inactive) | > 100 µM (inactive) | 43.4 µM (inactive) | 93.1 µM (inactive)
11 | CC(NC(=O)C(Cc1ccc([N+](=O)[O-])cc1)NC(=O)C(N)CCCCN)C(=O)NC(Cc1ccc([N+](=O)[O-])cc1)C(N)=O (stereo not given) (H-K[Phe(4-NO2)]A[Phe(4-NO2)]-NH2; configuration not given here) | 28.1 µM (inactive) | 27.6 µM (inactive) | > 38.6 µM (inactive) | 32.7 µM (inactive) | 23 µM (inactive) | 44.4 µM (inactive) | > 31.6 µM (inactive) | > 100 µM (inactive) | 47 µM (inactive) | > 37.5 µM (inactive) | 26.2 µM (inactive) | 23.4 µM (inactive) | 17.4 µM (inactive) | 85.3 µM (inactive) | 24.9 µM (inactive) | > 30.5 µM (inactive) | 85.5 µM (inactive) | 58.1 µM (inactive) | 21.9 µM (inactive) | > 50 µM (inactive)
